The text below walks through data of patent US7025999B2, “Chewing gum having prolonged sensory benefits” (Wm. Wrigley Jr. Company, priority 2001, dated 2006).

A short description of this test: Relative sweetness of hydrophobic sweetener compounds (factor used for the Sucrose Equivalent calculation). To be noted: Sucrose Equivalent = weight percent in the chewing gum multiplied by relative sweetness. The source says:
It should be appreciated that due to the slow release of hydrophobic sweeteners from the chewing gum, it is believed that higher levels of the hydrophobic sweeteners as compared to typical water soluble sweeteners may be necessary to provide the desired level of sweetness or sweetness intensity. The amount can suitably vary depending on any number of factors, such as the desired level of sweetness and the relative sweetness intensity specific to the hydrophobic sweetener compound. As detailed below, the relative sweetness can vary depending on the type of hydrophobic sweetener compound. In an embodiment, chewing gum includes the hydrophobic sweetener compound in an amount ranging from about 50 to about 5000 Sucrose Equivalents. The Sucrose Equivalent factor is determined by multiplying the weight percent of the hydrophobic compound in the chewing gum by its relative sweetness. By way of example and not limitation, the following tables illustrate a variety of hydrophobic sweetener compounds representative of the hydrophobic sweetener compounds of Formulas I–XI, as previously discussed. The tables also indicate the relative sweetness of the hydrophobic sweetener compounds. As previously discussed, this factor can be utilized to calculate the Sucrose Equivalent calculation which relates to the amount of hydrophobic sweetener in the chewing gum.

Consider `COc1ccc(C2COc3ccccc3C2)cc1O` (stereo not shown) [Compound 1], for which the “Relative Sweetness” value is 200.

As to `COc1ccc(C2Cc3ccccc3CO2)cc1O` (stereo not shown) [Compound 2], the “Relative Sweetness” value is 350. In the case of `COc1ccc(C2CCc3ccccc3O2)cc1O` (stereo not shown) [Compound 3] it was 350; in that of `COc1ccc(C2COc3ccccc3O2)cc1O` (stereo not shown) [Compound 4], 450. Regarding `COc1ccc(C2OCc3ccccc3O2)cc1O` (stereo not shown) [Compound 5], the “Relative Sweetness” value is 3000. Turning to `COc1ccc(C2Oc3ccccc3CS2)cc1O` (stereo not shown) [Compound 6], the “Relative Sweetness” value was 500. In the case of `COc1ccc(C2CSc3ccccc3O2)cc1O` (stereo not shown) [Compound 7], the “Relative Sweetness” value is 250. In the case of `COc1ccc(C2OCc3ccccc3S2)cc1O` (stereo not shown) [Compound 8], the “Relative Sweetness” value is on record as 9000. `COc1ccc(C2COc3ccccc3S2)cc1O` (stereo not shown) [Compound 9]: the “Relative Sweetness” value is 2000.

As to `COc1ccc(C2CCc3ccccc3S2)cc1O` (stereo not shown) [Compound 10], the “Relative Sweetness” value is reported as 200. The result for `COc1ccc(C2SCc3ccccc3S2)cc1O` (stereo not shown) [Compound 11] reads 1000; that for `COc1ccc(C2CSc3ccccc3S2)cc1O` (stereo not shown) [Compound 12], 450; that for `COc1ccc(C2Sc3ccccc3S2)cc1O` [Compound 13], 200. In the case of `COc1ccc(C2Oc3ccccc3S2)cc1O` (stereo not shown) [Compound 14] it was 300; in that of `COc1ccc(C2Oc3ccccc3O2)cc1O` [Compound 15], 150; in that of `COc1ccc(C2OCc3ccccc3S2)cc1S` (stereo not shown) [Compound 16], 50. As for `Oc1ccc(C2OCc3ccccc3S2)cc1O` (stereo not shown) [Compound 17], the “Relative Sweetness” value is on record as 200. Turning to `Oc1cccc(C2OCc3ccccc3S2)c1` (stereo not shown) [Compound 18], the “Relative Sweetness” value was 100. Take `COc1ccc(C2CS(=O)(=O)c3ccccc3O2)cc1O` (stereo not shown) [Compound 19]: the “Relative Sweetness” value is recorded as 50. Turning to `COc1ccc(C2CSc3cc(O)ccc3O2)cc1O` (stereo not shown) [Compound 20], the “Relative Sweetness” value was 500.

Take `COc1ccc(C(=O)c2ccccc2C(=O)O)cc1O` [Compound 21]: the “Relative Sweetness” value was 250. On to `O=C(O)c1ccccc1C(=O)c1ccc(O)c(O)c1` [Compound 22], for which the “Relative Sweetness” value is 100.

With `COc1ccc([S+]([O-])c2ccccc2C(=O)O)cc1` (stereo not shown) [Compound 23], the “Relative Sweetness” value was 50. In the case of `COc1ccc(CCC(=O)c2c(O)cc(O)cc2O)cc1O` [Compound 24], the “Relative Sweetness” value is 665. On to `COc1ccc(CCC(=O)c2cccc(C(=O)O)c2)cc1O` [Compound 25], for which the “Relative Sweetness” value is given as 80. As to `COc1ccc(OCc2ccccc2C(=O)O)cc1O` [Compound 26], the “Relative Sweetness” value was 10. As to `COc1ccc(CCc2ccccc2)cc1O` [Compound 27], the “Relative Sweetness” value is given as 300. Turning to `O=C(O)c1ccccc1C(=O)c1ccc(O)cc1` [Compound 30], the “Relative Sweetness” value was 200. For `COc1ccc(C(=O)/C=C/C(=O)O)cc1` [Compound 33], the “Relative Sweetness” value is recorded as 50.

Regarding `COc1ccc(OC(=O)c2ccccc2C(=O)O)cc1` [Compound 34], the “Relative Sweetness” value is on record as 10. As to `COc1ccc(C(=O)c2ccccc2C(=O)[O-])cc1.[Na+]` [Compound 36], the “Relative Sweetness” value is given as 150.
